Assay results from patent US20110319392A1, “Thiazole Sulfonamide And Oxazole Sulfonamide Kinase Inhibitors” (priority 2009, published 2011).

Experiments:
SK-MEL-28 tumor cells = assay: Cell growth inhibition assay (CellTiter-Glo), SK-MEL-28; type: cell-based, Human; settings: Homo sapiens, SK-MEL-28, 72 h; 3 days incubation
How it was run: (§1)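 Readout was CellTiter-Glo luminescence (total ATP, surrogate for cell number) after 3-day exposure at 37° C, 5% CO2 to 1:3 serial compound dilutions in 0.2% final DMSO. Seeding was 500 cells/well; IC50 derived by 4-parameter fit relative to vehicle-treated wells.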

A375P F11s tumor cells = assay: Cell growth inhibition assay (CellTiter-Glo), A375P F11s; type: cell-based, Human; settings: for IC50: Homo sapiens
Experimental: (§2) Human breast tumor cells (BT474) were cultured in RPMI (Mediatech […]), containing 10% FBS (JRH Biosciences 12176) and 1% penicillin-streptomycin (Invitrogen 15140). Human head and neck tumor cells (HN5) were cultured in high glucose DMEM (Mediatech 50-013-PB) containing 10% FBS and 1% penicillin-streptomycin. Human colon tumor cells (Colo205) were cultured in RPMI (Mediatech 50-020-PB) containing 10% FBS and 1% penicillin-streptomycin. Human melanoma cancer cells (SK-MEL-28) were cultured in EMEM with nonessential amino acids (Mediatech 50-011-PB) containing 10% FBS, 1% sodium pyruvate (JT Baker 3354-04), and 1% penicillin-streptomycin. Human melanoma cancer cells (A375P F11s) were cultured in RPMI (Mediatech 50-020-PB) containing 10% FBS, 1% sodium pyruvate, and 1% penicillin-streptomycin. Human colon cancer cells (HT-29) were cultured in high glucose DMEM (Mediatech 50-013-PB) containing 10% FBS and 1% penicillin-streptomycin. Human melanoma cancer cells (SK-MEL-3) were cultured in McCoy's 5A (50-025-PB) containing 15% FBS, and 1% penicillin-streptomycin. All cell lines were maintained at 37° C. in a humidified 5% CO2, 95% air incubator. Cells were harvested using trypsin/EDTA (Invitrogen 25200), counted using a haemocytometer, and plated. For 96-well assays (using white full-area NUNC plates cat. #136102), cells were plated in 105 μL at the following densities (cells/well): HNS, 500; Colo 205, 500; SK-MEL-28, 500; A375P F11s, 500; HT-29, 500; SK-MEL-3, 500; and BT474, 3000. For 384-well assays (white full-area NUNC plates, cat. #781080), cells were plated in 48 μL at the following densities (cells/well): HNS, 500; Colo205, 500; SK-MEL-28, 500; A375P F11s, 500; HT-29, 500; SK-MEL-3, 500; and BT474, 2000.
(§3) The next day, compounds were diluted as follow: For 96-well assays, 13.5 μL of compound in DMSO were diluted using nine (9) serial 1:3 dilutions of 4.5 μL in 9 of DMSO. Medium (270 μL/well of RPMI with 10% FBS and 1% penicillin-streptomycin) was added to the plates. Aliquots (7 μL) were added to cells in the final assay giving a final DMSO concentration of 0.2%. For 384-well assays, 15 μL of compound in DMSO were diluted using nine (9) serial 1:3 dilutions of 5 μL in 10 μL of DMSO, followed by a further dilution of 5 μL of compound with 95 μL of medium, of which 2 μL were added to cells in the final assay giving a final DMSO concentration of 0.2%. Cells were incubated at 37° C., 5% CO2 for 3 days.
(§4) Total ATP was measured (as a surrogate estimate of cell number) using CellTiter-Glo® reagent (Promega G7571). Briefly, plates were removed from the incubator and allowed to equilibrate to room temperature for 30 minutes. CellTiter-Glo® (25 μL or 55 μL for 384-well or 96-well assays, respectively) reagent was added to each well and plates were shaken on an orbital plate shaker for 2 minutes. Plates were incubated without shaking for a further 30 minutes and read on an LJL Analyst GT reader in luminometer mode with an integration time of 0.5 seconds per well. Percent inhibition of cell growth was calculated relative to DMSO vehicle-treated control wells. Concentration of compound required to give 50% inhibition of vehicle-treated control cell growth (IC50) was interpolated using a 4-parameter fit for determining IC50 using the following equation: Y=A +((B−A)/(1+((C/X)̂D))) where […].

ErbB2 = molecular target: T1, ErbB2 (Homo sapiens, UniProt P04626); assay: ErbB-2 substrate phosphorylation assay (HTRF); type: biochemical
T1 construct: made in house; host or cells: baculovirus expression system
How it was run: (§5)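 Baculovirus-expressed EGFR (0.8 nM) or ErbB2 (10 nM) in enzyme mix, preincubated 1 h at 20 °C with compound (0.00027–47.6 μM final), then 90 min at 20 °C with substrate mix of 20 μM ATP, 0.8 uM biotinylated Peptide C, MnCl2, MOPS pH 7.5. Phosphotyrosine by HTRF; pIC50 reported.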

EGFR = molecular target: T2, EGFR (Homo sapiens, UniProt P00533); assay: EGFR substrate phosphorylation assay (HTRF); type: biochemical
T2 construct: made in house; host or cells: baculovirus expression system
How it was run: as §5

HN5 tumor cells = assay: Cell growth inhibition assay (CellTiter-Glo), HN5; type: cell-based, Human; settings: Homo sapiens, 72 h; 3 days incubation
Experimental: as §2, §3, §4

HT-29 tumor cells = assay: Cell growth inhibition assay (CellTiter-Glo), HT-29; type: cell-based, Human; settings: for IC50: Homo sapiens
Experimental: as §2, §3, §4

Colo205 tumor cells = assay: Cell growth inhibition assay (CellTiter-Glo), Colo205; type: cell-based, Human; settings: Homo sapiens, COLO 205, 72 h; 3 days incubation
How it was run: as §1

SK-MEL-3 tumor cells = assay: Cell growth inhibition assay (CellTiter-Glo), SK-MEL-3; type: cell-based, Human; settings: for IC50: Homo sapiens, SK-MEL3
Experimental: as §2, §3, §4

BT474 tumor cells = assay: Cell growth inhibition assay (CellTiter-Glo), BT474; type: cell-based, Human; settings: Homo sapiens, BT-474, 72 h, 3 days incubation
Experimental: as §2, §3, §4

B-Raf = B-Raf (Homo sapiens, UniProt P15056); assay: B-Raf Accelerated MEK ATPase assay (BRAMA), Method A or B; type: biochemical; settings: Method B: final MEK 150 nM, single end point read
How it was run: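 ADP production, initiated by catalytic activated Raf with unphosphorylated MEK, is followed by NADH oxidation through a PK/LDH coupled system. Method B differs from the kinetic Method A by a single end-point read and 150 nM final MEK.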

T2 sequence (P00533 25-1210): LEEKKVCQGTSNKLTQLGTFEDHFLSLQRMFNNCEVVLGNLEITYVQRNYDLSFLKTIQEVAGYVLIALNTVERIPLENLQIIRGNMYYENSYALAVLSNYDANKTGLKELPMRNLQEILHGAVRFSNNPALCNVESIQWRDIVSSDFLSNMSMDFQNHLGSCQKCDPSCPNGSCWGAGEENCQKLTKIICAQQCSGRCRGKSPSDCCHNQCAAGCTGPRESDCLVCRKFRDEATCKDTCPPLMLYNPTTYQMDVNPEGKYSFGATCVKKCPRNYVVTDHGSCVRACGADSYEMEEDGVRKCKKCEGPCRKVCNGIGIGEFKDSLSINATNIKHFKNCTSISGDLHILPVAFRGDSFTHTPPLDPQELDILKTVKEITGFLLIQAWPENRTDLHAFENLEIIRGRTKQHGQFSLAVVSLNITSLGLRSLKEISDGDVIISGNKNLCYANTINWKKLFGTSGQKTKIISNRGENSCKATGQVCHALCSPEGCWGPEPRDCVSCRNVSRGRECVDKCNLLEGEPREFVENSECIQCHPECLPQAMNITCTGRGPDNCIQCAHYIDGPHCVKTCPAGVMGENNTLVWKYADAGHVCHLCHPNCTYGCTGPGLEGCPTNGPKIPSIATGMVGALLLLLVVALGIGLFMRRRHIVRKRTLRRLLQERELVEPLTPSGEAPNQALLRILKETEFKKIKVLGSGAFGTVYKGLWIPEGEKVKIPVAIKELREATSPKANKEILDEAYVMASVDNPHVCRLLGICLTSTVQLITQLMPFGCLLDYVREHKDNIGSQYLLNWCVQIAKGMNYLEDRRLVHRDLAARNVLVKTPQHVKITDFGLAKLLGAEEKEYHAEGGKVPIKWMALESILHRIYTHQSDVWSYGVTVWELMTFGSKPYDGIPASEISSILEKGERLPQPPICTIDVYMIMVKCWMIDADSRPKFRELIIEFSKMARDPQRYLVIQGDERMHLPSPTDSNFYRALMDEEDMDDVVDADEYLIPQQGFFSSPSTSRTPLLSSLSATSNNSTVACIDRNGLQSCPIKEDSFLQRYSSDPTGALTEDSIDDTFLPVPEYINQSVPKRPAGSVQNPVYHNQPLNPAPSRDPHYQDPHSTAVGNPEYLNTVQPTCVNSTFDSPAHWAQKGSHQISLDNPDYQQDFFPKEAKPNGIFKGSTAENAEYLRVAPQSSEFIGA
T1 sequence (P04626 23-1255): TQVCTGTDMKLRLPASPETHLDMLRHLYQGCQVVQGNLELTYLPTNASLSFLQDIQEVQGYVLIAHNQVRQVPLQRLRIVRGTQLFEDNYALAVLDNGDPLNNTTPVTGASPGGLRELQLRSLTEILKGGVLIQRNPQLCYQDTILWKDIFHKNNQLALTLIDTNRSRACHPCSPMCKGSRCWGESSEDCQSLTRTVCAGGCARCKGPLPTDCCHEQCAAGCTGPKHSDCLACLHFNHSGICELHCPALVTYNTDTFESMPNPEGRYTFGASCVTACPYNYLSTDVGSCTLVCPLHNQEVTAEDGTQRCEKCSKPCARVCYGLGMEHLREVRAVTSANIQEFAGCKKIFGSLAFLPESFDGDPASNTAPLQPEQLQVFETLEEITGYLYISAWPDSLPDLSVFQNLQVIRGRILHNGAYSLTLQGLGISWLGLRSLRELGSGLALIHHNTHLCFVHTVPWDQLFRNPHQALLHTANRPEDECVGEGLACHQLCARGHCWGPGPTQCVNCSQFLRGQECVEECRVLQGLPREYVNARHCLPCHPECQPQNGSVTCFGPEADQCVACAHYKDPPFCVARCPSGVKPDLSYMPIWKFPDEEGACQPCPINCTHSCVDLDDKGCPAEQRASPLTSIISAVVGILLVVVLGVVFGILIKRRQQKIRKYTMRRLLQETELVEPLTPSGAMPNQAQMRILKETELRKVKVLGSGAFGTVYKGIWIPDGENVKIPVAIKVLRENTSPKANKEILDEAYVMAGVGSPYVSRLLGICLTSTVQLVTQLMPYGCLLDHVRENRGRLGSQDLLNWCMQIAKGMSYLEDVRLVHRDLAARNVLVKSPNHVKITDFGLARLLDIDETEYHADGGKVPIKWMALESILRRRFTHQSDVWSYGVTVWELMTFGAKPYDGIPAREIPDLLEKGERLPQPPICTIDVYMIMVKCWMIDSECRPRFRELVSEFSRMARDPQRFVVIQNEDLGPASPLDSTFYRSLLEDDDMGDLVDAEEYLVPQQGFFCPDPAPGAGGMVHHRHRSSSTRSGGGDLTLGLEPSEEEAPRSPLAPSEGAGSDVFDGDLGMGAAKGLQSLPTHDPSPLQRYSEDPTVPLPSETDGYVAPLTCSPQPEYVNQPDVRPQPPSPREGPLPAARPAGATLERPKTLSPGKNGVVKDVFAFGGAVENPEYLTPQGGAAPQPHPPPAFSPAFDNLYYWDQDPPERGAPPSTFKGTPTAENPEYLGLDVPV
B-Raf, sequence (P15056 whole entry): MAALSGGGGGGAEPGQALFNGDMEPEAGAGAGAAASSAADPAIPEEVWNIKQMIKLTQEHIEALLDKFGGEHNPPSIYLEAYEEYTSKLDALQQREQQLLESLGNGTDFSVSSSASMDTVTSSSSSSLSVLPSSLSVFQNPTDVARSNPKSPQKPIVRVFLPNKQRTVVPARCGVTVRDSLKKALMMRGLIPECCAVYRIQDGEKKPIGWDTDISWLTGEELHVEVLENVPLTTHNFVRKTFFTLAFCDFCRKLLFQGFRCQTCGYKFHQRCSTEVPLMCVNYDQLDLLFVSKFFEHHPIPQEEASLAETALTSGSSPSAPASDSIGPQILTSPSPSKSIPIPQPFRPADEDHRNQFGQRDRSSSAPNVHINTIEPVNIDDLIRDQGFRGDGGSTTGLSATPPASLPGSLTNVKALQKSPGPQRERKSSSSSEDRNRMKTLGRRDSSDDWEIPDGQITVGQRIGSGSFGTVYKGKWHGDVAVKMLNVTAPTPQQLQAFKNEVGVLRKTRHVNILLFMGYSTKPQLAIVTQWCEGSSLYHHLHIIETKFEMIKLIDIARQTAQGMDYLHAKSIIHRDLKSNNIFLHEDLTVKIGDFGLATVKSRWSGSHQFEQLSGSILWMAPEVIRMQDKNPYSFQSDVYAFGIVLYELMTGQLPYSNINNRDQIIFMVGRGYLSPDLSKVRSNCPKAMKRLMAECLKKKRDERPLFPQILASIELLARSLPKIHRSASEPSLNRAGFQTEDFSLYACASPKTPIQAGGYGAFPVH

Row | SMILES | IC50 (SK-MEL-28 tumor cells) | IC50 (A375P F11s tumor cells) | IC50 (ErbB2) | IC50 (EGFR) | IC50 (HN5 tumor cells) | IC50 (HT-29 tumor cells) | IC50 (Colo205 tumor cells) | IC50 (SK-MEL-3 tumor cells) | IC50 (BT474 tumor cells) | IC50 (B-Raf) | Activity in A375P F11s Tumor Cells (A375P F11s tumor cells) | Activity in HT-29 Tumor Cells (HT-29 tumor cells) | Activity in SK-MEL-3 Tumor Cells (SK-MEL-3 tumor cells)
1 | CCc1nc(-c2cccc(NS(=O)(=O)c3ccccc3)c2)c(-c2ccnc(Nc3cc(OC)c(OC)c(OC)c3)n2)s1 [Example 2, N-{3-[2-Ethyl-5-(2-{[3,4,5-tris(methyloxy)phenyl]amino}-4-pyrimidinyl)-1,3-thiazol-4-yl]phenyl}benzenesulfonamide] | < 100 nM | < 100 nM | > 1000 nM | > 1000 nM | 100 to 1000 nM | 100 to 1000 nM | < 100 nM | < 100 nM | > 1000 nM | – | – | – | –
2 | COCCN1CCN(c2ccc(Nc3nccc(-c4sc(C(C)C)nc4-c4cccc(NS(=O)(=O)c5ccccc5)c4)n3)cn2)CC1.Cl [Example 7] | – | – | – | – | – | – | – | – | – | – | +++ (activity of less than 100 nM in A375P F11s tumor cells) | +++ (activity of less than 100 nM in HT-29 tumor cells) | +++ (activity of less than 100 nM in SK-MEL-3 tumor cells)
3 | CCc1nc(-c2ccc(F)c(NS(=O)(=O)c3ccccc3)c2)c(-c2ccnc(Nc3ccc(N4CCN(C(C)=O)CC4)nc3)n2)s1 [Example 66] | 100 to 1000 nM | – | > 1000 nM | > 1000 nM | > 1000 nM | > 1000 nM | 100 to 1000 nM | – | > 1000 nM | < 100 nM | – | – | –
4 | CC(C)(F)c1nc(-c2cccc(NS(=O)(=O)c3c(F)cccc3F)c2)c(-c2ccnc(Nc3ccc(N4CCN(CCF)CC4)c(F)c3)n2)s1 [Example 94] | < 100 nM | – | > 1000 nM | > 1000 nM | > 1000 nM | < 100 nM | < 100 nM | – | > 1000 nM | 100 to 1000 nM | – | – | –
5 | COc1cc(C2CCN(CCS(C)(=O)=O)CC2)c(C)cc1Nc1nccc(-c2sc(C(C)C)nc2-c2cccc(NS(=O)(=O)c3c(F)cccc3F)c2)n1 [Example 115] | < 100 nM | 100 to 1000 nM | > 1000 nM | > 1000 nM | – | 100 to 1000 nM | 100 to 1000 nM | 100 to 1000 nM | – | < 100 nM | – | – | –
6 | COc1cc(N2CCC3(CC2)CCN(S(C)(=O)=O)CC3)c(C)cc1Nc1nccc(-c2sc(C(C)C)nc2-c2cccc(NS(=O)(=O)c3c(F)cccc3F)c2F)n1 [Example 160] | 100 to 1000 nM | – | 100 to 1000 nM | 100 to 1000 nM | – | – | < 100 nM | – | – | < 100 nM | – | – | –

More lines, main results first:

Row | IC50 (SK-MEL-28 tumor cells) | IC50 (A375P F11s tumor cells) | IC50 (ErbB2) | IC50 (EGFR) | IC50 (HN5 tumor cells) | IC50 (HT-29 tumor cells) | IC50 (Colo205 tumor cells) | IC50 (SK-MEL-3 tumor cells) | IC50 (BT474 tumor cells) | IC50 (B-Raf) | SMILES | Activity in A375P F11s Tumor Cells (A375P F11s tumor cells) | Activity in HT-29 Tumor Cells (HT-29 tumor cells) | Activity in SK-MEL-3 Tumor Cells (SK-MEL-3 tumor cells)
7 | 100 to 1000 nM | – | < 100 nM | < 100 nM | – | – | < 100 nM | – | – | 100 to 1000 nM | COc1cc(N2CCN(CCS(C)(=O)=O)CC2)c(C)cc1Nc1nccc(-c2sc(CC(C)C)nc2-c2cccc(NS(=O)(=O)c3c(F)cccc3F)c2)n1 [Example 161] | – | – | –
8 | 100 to 1000 nM | – | < 100 nM | < 100 nM | – | – | 100 to 1000 nM | – | – | 100 to 1000 nM | COc1cc(N2CCN(CCS(C)(=O)=O)CC2)c(C)cc1Nc1nccc(-c2scnc2-c2cccc(NS(=O)(=O)c3c(F)cccc3F)c2)n1 [Example 163] | – | – | –
9 | < 100 nM | – | > 1000 nM | > 1000 nM | – | – | < 100 nM | – | – | < 100 nM | COc1ccc(S(C)(=O)=O)cc1Nc1nccc(-c2sc(N3CCOCC3)nc2-c2cccc(NS(=O)(=O)c3c(F)cccc3F)c2Cl)n1 [Example 164] | – | – | –
